Source: patent US20210156844A1, “TMEM16A Modulation for Diagnostic or Therapeutic Use in Pulmonary Hypertension (PH)” (Bayer Aktiengesellschaft, priority 2017, published 2021)

Legend:
PASMC = test: Membrane potential (Em) measurement, current clamp, primary PASMC; assay type: cell-based, human; conditions: BBR 30 μM, T16Ainh-A01 10 μM
Description: PASMC were grown on glass coverslips and serum starved for 24-48 hours. The coverslips were perfused with a bath solution composed of (in mM) NaCl 141, KCl 4.7, HEPES 10, glucose 10, CaCl2 1.8, MgCl2 1.2, pH 7.4 (NaOH) at room temperature. Micropipettes were pulled of borosilicate glass capillaries (GC150F-10, Harvard Apparatus Ltd, Edenbridge, Kent, UK) with a P-2000 electrode puller (Sutter Instruments, Novato Ca, USA), and fire polished using a micro-forge (MF-830, Narishige, Tokyo, Japan) to give a final resistance of 3-5 MΩ when filled with the pipette solution (composition in mM: NaCl 10, KCl 125, K2ATP 5, HEPES 10, EGTA 5, MgCl2 4, pH set to 7.2 with KOH). Em was measured with a HEKA EPC10 patch clamp amplifier (Dr. Schulze GmbH, Lambrecht, Germany) in the current clamp mode as described by others (Mason, M J, et al., Biophys. J. (2005) 88, 739-750; Perkins, KL, J. Neurosci. Methods (2006) 154, 1-18).
The liquid junction potential was calculated with the Clampex 10.0 software (Molecular Devices, Sunnyvale Calif., USA) and an online correction was made for each recording. Both at baseline and during perfusion with 30 μM benzbromarone (BBR, Sigma, St Louis Mo., USA) or 10 μM T16Ainh-A01 (Tocris, Bristol, UK), only those recordings in which (1) the Em was constant for at least 3 minutes, and (2) the seal resistance was constantly high (>5 GΩ) were used for the analyses.
The HEK-293 cells were transfected overnight either with the CLCA1 gene containing or with the empty plasmid, using the Effectene transfection reagent kit (Qiagen) and DMEM F-12 complete medium. On the next day, the medium was changed to serum-free SMC Medium. The resulting conditioned media were collected 24 hours later and applied on the PASMC of healthy donors. After 24 hours of incubation, the Em of the PASMC was measured as described above. To confirm the presence of CLCA1 in the conditioned medium, 20 μL of conditioned medium as well as control medium (collected from cells transfected with the empty plasmide) were analyzed with western blot as described above, using a CLCA1 antibody (ab108851, Abcam).

[1] = system: U-46619 preconstricted isolated mouse PA; test: Measurement of pulmonary artery tone ex vivo; conditions: cumulatively increasing concentrations 0.1 to 30 μM; U-46619 30 nM
Description: Pulmonary artery rings were isolated from male C57BL/6J mice (20-25 weeks old, Charles River, Wilmington Mass., USA), as described by Jain et al. (Jain, P P, et al., Int. J. Nanomedicine (2014) 9, 3249-3261). Following stable contraction (approx. 30 minutes post-addition of U-46619, 30 nM), the arteries were subjected to cumulatively increasing concentrations (0.1 to 30 μM) of the TMEM6A blockers T16Ainh-A01 (Tocris) and benzbromarone (Sigma) in order to analyze the concentration-response relationships.

With CCc1c(C)nc(SCC(=O)Nc2nc(-c3ccc(OC)cc3)cs2)[nH]c1=O [T16Ainh-A01, 2-[(5-Ethyl-1,6-dihydro-4-methyl-6-oxo-2-pyrimidinyl)thio]-N-[4-(4-methoxyphenyl)-2-thiazolyl]-acetamide] the “reversal of the Em of IPAH-PASMC to the levels of PASMC isolated from healthy donors” value (PASMC; PASMC of IPAH patients) was “close”, the “effect on Em of PASMC of donors” value (PASMC; PASMC of healthy donors) was “no effect” and the “vasorelaxation of preconstricted PA” value [1] was “dose-dependent vasorelaxation”.
